Measurements taken from patent US20230049231A1 (priority 2019, published 2023).

Legend:
Kv1.3 potassium channel = target: T1, Kv1.3 potassium channel (Homo sapiens, UniProt P22001); test: Kv1.3 potassium channel blocker activity, automated whole-cell patch clamp (Patchliner); type: cell-based
T1 construct: expressed in transfected cells
Method in brief: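 IC50 came from Hill-equation fits of peak and AUC currents from the final pulse at each concentration, normalized to compound-free control. Compounds applied consecutively at 30 nM to 100 μM (up to 0.3% DMSO) to Kv1.3-expressing CHO-K1 cells, P/4 leak subtraction. Pulses were +40 mV, 100 ms, from −90 mV holding, at 0.1 Hz on Patchliner.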

hERG channel = target: T2, hERG channel (Homo sapiens, UniProt Q12809); test: hERG electrophysiology, automated whole-cell patch clamp (Patchliner); type: cell-based
T2 construct: expressed in transfected cells
T2 sequence (Q12809 whole entry): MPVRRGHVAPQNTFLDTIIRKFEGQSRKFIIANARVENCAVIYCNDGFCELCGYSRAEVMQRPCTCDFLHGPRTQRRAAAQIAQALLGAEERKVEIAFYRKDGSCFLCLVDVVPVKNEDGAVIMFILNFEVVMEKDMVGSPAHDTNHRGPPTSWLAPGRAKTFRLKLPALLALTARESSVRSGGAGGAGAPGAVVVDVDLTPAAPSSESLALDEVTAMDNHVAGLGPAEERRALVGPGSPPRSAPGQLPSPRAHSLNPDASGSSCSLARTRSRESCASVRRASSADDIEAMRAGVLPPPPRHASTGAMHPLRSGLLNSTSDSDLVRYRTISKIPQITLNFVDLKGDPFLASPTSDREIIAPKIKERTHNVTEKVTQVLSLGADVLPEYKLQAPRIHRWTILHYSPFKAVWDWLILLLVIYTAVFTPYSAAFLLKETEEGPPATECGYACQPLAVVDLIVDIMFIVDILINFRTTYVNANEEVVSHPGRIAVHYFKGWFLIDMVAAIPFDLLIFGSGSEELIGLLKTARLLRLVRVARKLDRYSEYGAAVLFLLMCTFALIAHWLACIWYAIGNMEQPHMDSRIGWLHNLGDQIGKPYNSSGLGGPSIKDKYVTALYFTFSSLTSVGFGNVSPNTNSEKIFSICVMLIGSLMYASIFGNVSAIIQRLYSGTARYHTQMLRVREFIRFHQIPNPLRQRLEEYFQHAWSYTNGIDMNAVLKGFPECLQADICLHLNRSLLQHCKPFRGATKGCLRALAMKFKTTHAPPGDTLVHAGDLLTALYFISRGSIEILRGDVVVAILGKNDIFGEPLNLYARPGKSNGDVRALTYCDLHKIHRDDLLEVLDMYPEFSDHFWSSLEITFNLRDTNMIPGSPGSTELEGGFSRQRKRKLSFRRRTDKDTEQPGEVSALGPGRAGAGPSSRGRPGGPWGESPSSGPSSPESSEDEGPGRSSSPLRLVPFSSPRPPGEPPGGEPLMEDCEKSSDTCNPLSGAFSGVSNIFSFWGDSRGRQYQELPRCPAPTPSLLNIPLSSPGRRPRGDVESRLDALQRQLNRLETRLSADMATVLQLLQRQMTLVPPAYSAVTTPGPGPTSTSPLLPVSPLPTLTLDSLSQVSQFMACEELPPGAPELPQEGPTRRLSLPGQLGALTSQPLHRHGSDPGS
Method in brief: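 Automated whole-cell patch clamp on CHO-K1 cells stably expressing hERG; 30 nM–100 μM applied cumulatively to the same cell, ≤0.3% DMSO. Pulses: −80 mV holding, +20 mV for 300 ms, −50 mV for 300 ms tail, 0.3 Hz, 70 per concentration. Last-pulse AUC and peak, normalized to control, were fitted to a Hill equation for IC50.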

[1] = Kv1.3 potassium channel, whole-cell patch clamp
[2] = hERG channel, whole-cell patch clamp
[3] = CHO-K1 cells stably expressing Kv1.3, 100 ms pulses from -90 mV to +40 mV, 0.1 Hz
[4] = CHO-K1 cells stably expressing hERG, +20 mV 300 ms, -50 mV 300 ms tail current, 0.3 Hz

T1 sequence (P22001 whole entry): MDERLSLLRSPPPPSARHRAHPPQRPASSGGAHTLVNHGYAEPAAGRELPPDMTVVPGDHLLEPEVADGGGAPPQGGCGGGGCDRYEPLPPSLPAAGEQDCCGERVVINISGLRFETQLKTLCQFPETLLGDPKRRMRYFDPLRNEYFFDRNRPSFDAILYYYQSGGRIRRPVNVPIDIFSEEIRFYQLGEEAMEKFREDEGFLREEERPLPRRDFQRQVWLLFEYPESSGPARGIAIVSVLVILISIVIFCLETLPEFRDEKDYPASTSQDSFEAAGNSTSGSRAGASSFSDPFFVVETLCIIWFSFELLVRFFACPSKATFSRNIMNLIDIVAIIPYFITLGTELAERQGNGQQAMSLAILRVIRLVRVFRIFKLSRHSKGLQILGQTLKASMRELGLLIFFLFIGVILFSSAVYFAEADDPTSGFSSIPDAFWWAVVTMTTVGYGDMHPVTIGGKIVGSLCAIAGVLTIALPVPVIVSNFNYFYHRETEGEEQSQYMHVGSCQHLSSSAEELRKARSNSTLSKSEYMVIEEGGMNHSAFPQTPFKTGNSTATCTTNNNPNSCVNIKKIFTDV

SMILES	IC50 (Kv1.3 potassium channel; [1])	IC50 (hERG channel; [2])	IC50 (Kv1.3 potassium channel; [3])	IC50 (hERG channel; [4])
O=C1O[C@@H](CN2CC(O)C2)[C@@H]2C[C@H](c3c(O)ccc(Cl)c3Cl)CN12 (single isomer, unassigned) [Compound 282]	< 1 µM	< 30 µM		
O=C1O[C@H](CN2CC(O)C2)[C@@H]2C[C@H](c3c(O)ccc(Cl)c3Cl)CN12 (single isomer, unassigned) [Compound 283]	< 1 µM	> 30 µM		
O=C1O[C@@H](CN2CCOCC2)[C@@H]2C[C@H](c3c(O)ccc(Cl)c3Cl)CN12 (single isomer, unassigned) [Compound 284]	< 1 µM	> 30 µM		
O=C1O[C@H](CN2CCOCC2)[C@@H]2C[C@H](c3c(O)ccc(Cl)c3Cl)CN12 (single isomer, unassigned) [Compound 285]	< 1 µM	> 30 µM		
NC(=O)[C@@H]1OC(=O)N2C[C@@H](c3c(O)ccc(Cl)c3Cl)C[C@@H]12 (single isomer, unassigned) [Compound 286]	< 1 µM	> 30 µM		
NC(=O)[C@H]1OC(=O)N2C[C@@H](c3c(O)ccc(Cl)c3Cl)C[C@@H]12 (single isomer, unassigned) [Compound 287]	< 1 µM	> 30 µM		
CNC(=O)[C@@H]1OC(=O)N2C[C@@H](c3c(O)ccc(Cl)c3Cl)C[C@@H]12 (single isomer, unassigned) [Compound 288]	< 1 µM	> 30 µM		
O=C1CN(C(=O)[C@H]2C[C@H](O)C2)C[C@@H]2C[C@H](c3c(O)ccc(Cl)c3Cl)CN12 (single isomer, unassigned; isomer 1) [Compound 27]			< 1 µM	> 30 µM
O=C1C[C@@H](O)C[C@@H]2C[C@H](c3c(O)ccc(Cl)c3Cl)CN12 (single isomer, unassigned; isomer 1) [Compound 61]			< 1 µM	> 30 µM
C[C@@H]1CN(C(=O)CO)C[C@@H]2C[C@H](c3c(O)ccc(Cl)c3Cl)CN2C1=O (single isomer, unassigned; isomer 1) [Compound 91]	< 1 µM	> 30 µM		
O=C1CN(C[C@@H]2CCN2)C[C@@H]2C[C@H](c3c(O)ccc(Cl)c3Cl)CN12 (single isomer, unassigned; isomer 1) [Compound 139]	< 1 µM	> 30 µM		
C[C@@H](O)CN1CC(=O)N2C[C@@H](c3c(O)ccc(Cl)c3Cl)C[C@H]2C1 (single isomer, unassigned; isomer 1) [Compound 150]	< 1 µM	> 30 µM		
COC[C@@H](O)CN1CC(=O)N2C[C@@H](c3c(O)ccc(Cl)c3Cl)C[C@H]2C1 (single isomer, unassigned; isomer 1) [Compound 152]	< 1 µM	< 30 µM		
O=C1C[C@@H](N2CC(=O)N3C[C@@H](c4c(O)ccc(Cl)c4Cl)C[C@H]3C2)CN1 (single isomer, unassigned; isomer 1) [Compound 160]	< 1 µM	> 30 µM		
O=C1CN([C@H]2C[C@](O)(CO)C2)C[C@@H]2C[C@H](c3c(O)ccc(Cl)c3Cl)CN12 (single isomer, unassigned; isomer 1) [Compound 163]	< 1 µM	> 30 µM		
O=C1CN(C(=O)[C@H]2C[C@@H](O)C2)C[C@@H]2C[C@H](c3c(O)ccc(Cl)c3Cl)CN12 (single isomer, unassigned; isomer 2) [Compound 22]			< 1 µM	> 30 µM
O=C1C[C@H](O)C[C@@H]2C[C@H](c3c(O)ccc(Cl)c3Cl)CN12 (single isomer, unassigned; isomer 2) [Compound 62]			< 1 µM	> 30 µM
C[C@H]1[C@@H]2C[C@H](c3c(O)ccc(Cl)c3Cl)CCN2C(=O)CN1C(=O)CO (single isomer, unassigned; isomer 2) [Compound 84]	< 1 µM	> 30 µM		
C[C@H]1[C@@H]2C[C@H](c3c(O)ccc(Cl)c3Cl)CN2C(=O)CN1C(=O)CO (single isomer, unassigned; isomer 2) [Compound 88]	< 1 µM	> 30 µM		
C[C@H]1CN(C(=O)CO)C[C@@H]2C[C@H](c3c(O)ccc(Cl)c3Cl)CN2C1=O (single isomer, unassigned; isomer 2) [Compound 92]	< 1 µM	> 30 µM		

SMILES	IC50 (Kv1.3 potassium channel; [1])	IC50 (hERG channel; [2])	IC50 (Kv1.3 potassium channel; [3])	IC50 (hERG channel; [4])
O=C1CN(C[C@H](O)CO)C[C@@H]2C[C@H](c3c(O)ccc(Cl)c3Cl)CN12 (single isomer, unassigned; isomer 2) [Compound 115]	< 1 µM	> 30 µM		
C[C@@H](CO)N1CC(=O)N2C[C@@H](c3c(O)ccc(Cl)c3Cl)C[C@H]2C1 (single isomer, unassigned; isomer 2) [Compound 117]	< 1 µM	> 30 µM		
COC[C@@H](CO)N1CC(=O)N2C[C@@H](c3c(O)ccc(Cl)c3Cl)C[C@H]2C1 (single isomer, unassigned; isomer 2) [Compound 119]	< 1 µM	> 30 µM		
C[C@H](C1CNC1)N1CC(=O)N2C[C@@H](c3c(O)ccc(Cl)c3Cl)C[C@H]2C1 (single isomer, unassigned; isomer 2) [Compound 138]	< 1 µM	> 30 µM		
O=C1CN(C[C@H]2CCN2)C[C@@H]2C[C@H](c3c(O)ccc(Cl)c3Cl)CN12 (single isomer, unassigned; isomer 2) [Compound 140]	< 1 µM	> 30 µM		
C[C@H](O)CN1CC(=O)N2C[C@@H](c3c(O)ccc(Cl)c3Cl)C[C@H]2C1 (single isomer, unassigned; isomer 2) [Compound 151]	< 1 µM	> 30 µM		
COC[C@H](O)CN1CC(=O)N2C[C@@H](c3c(O)ccc(Cl)c3Cl)C[C@H]2C1 (single isomer, unassigned; isomer 2) [Compound 153]	< 1 µM	< 30 µM		
O=C1C[C@H](N2CC(=O)N3C[C@@H](c4c(O)ccc(Cl)c4Cl)C[C@H]3C2)CN1 (single isomer, unassigned; isomer 2) [Compound 161]	< 1 µM	> 30 µM		
O=C1CN([C@H]2C[C@@](O)(CO)C2)C[C@@H]2C[C@H](c3c(O)ccc(Cl)c3Cl)CN12 (single isomer, unassigned; isomer 2) [Compound 164]	< 1 µM	> 30 µM		
O=C1CC(N2CCNCC2)C[C@@H]2C[C@H](c3c(O)ccc(Cl)c3Cl)CN12 (stereo in doubt) [Compound 208, (2R,7R,8aS)-2-(2,3-dichloro-6-hydroxyphenyl)-7-(piperazin-1-yl)hexahydroindolizin-5(1H)-one]	< 1 µM	< 10 µM		
O=C(CO)N1CC(=O)N2CC[C@@H](c3c(O)ccc(Cl)c3Cl)C[C@H]2C1 [Compound 1, (8R,9aS)-8-(2,3-dichloro-6-hydroxyphenyl)-2-(2-hydroxyacetyl)-hexahydro-1H-pyrido[1,2-a]pyrazin-4-one]			< 1 µM	> 30 µM
O=C1CN(CCO)C[C@@H]2C[C@H](c3c(O)ccc(Cl)c3Cl)CN12 [Compound 2, (7R,8aS)-7-(2,3-dichloro-6-hydroxyphenyl)-2-(2-hydroxyethyl)-hexahydropyrrolo[1,2-a]pyrazin-4-one]			< 1 µM	> 30 µM
COC[C@@H](O)C(=O)N1CC(=O)N2CC[C@@H](c3c(O)ccc(Cl)c3Cl)C[C@H]2C1 [Compound 4, (8R,9aS)-8-(2,3-dichloro-6-hydroxyphenyl)-2-[(2R)-2-hydroxy-3-methoxypropanoyl]-hexahydro-1H-pyrido[1,2-a]pyrazin-4-one]			< 1 µM	> 30 µM
CCC(=O)N1CC(=O)N2C[C@@H](c3c(O)ccc(Cl)c3Cl)C[C@H]2C1 [Compound 8, (7R,8aS)-7-(2,3-dichloro-6-hydroxyphenyl)-2-pro-pionylhexahydropyrrolo [1,2-a]pyrazin-4(1H)-one]			< 1 µM	< 30 µM
CC[C@H](O)C(=O)N1CC(=O)N2CC[C@@H](c3c(O)ccc(Cl)c3Cl)C[C@H]2C1 [Compound 9, (8R,9aS)-8-(2,3-dichloro-6-hydroxyphenyl)-2-[(2S)-2-hydroxybutanoyl]-hexahydro-1H-pyrido[1,2-a]pyrazin-4-one]			< 1 µM	> 30 µM
O=C(CCO)N1CC(=O)N2CC[C@@H](c3c(O)ccc(Cl)c3Cl)C[C@H]2C1 [Compound 11, (8R,9aS)-8-(2,3-dichloro-6-hydroxyphenyl)-2-(3-hydroxypropanoyl)octahydro-4H-pyrido[1,2-a]pyrazin-4-one]			< 1 µM	> 30 µM
CO[C@H](CO)C(=O)N1CC(=O)N2C[C@@H](c3c(O)ccc(Cl)c3Cl)C[C@H]2C1 [Compound 14, (7R,8aS)-7-(2,3-dichloro-6-hydroxyphenyl)-2-[(2R)-3-hydroxy-2-methoxypropanoyl]-hexahydropyrrolo[1,2-a]pyrazin-4-one]			< 1 µM	> 30 µM
O=C1CNC[C@@H]2C[C@H](c3c(O)ccc(Cl)c3Cl)CCN12 [Compound 15]			< 1 µM	< 30 µM
C[C@@H](O)C(=O)N1CC(=O)N2CC[C@@H](c3c(O)ccc(Cl)c3Cl)C[C@H]2C1 [Compound 16, (8R,9aS)-8-(2,3-dichloro-6-hydroxyphenyl)-2-[(2R)-2-hydroxypropanoyl]-hexahydro-1H-pyrido[1,2-a]pyrazin-4-one]			< 1 µM	> 30 µM
